Assays:
Type in all cases: biochemical
[1] = biological target: succinate-cytochrome C oxidase (SCO) (Sus scrofa, UniProt P24964); assay: Enzyme activity test, SCO
Protocol: (§1) Take NADH oxidase (NOX), succinate-cytochrome C oxidase (SCO), and Complex III as target enzymes, the inhibitory activity of the compound of Formula (I) was tested.
(§2) ^a NOX is generally used to detect an inhibitor of Complex I and Complex III; SCO is generally used to detect an inhibitor of Complex II and Complex III. Thus, an inhibitor of Complex III should have inhibitory activity on the two enzymes.

[2] = biological target: T1, cytochrome bc1 complex of pig heart (Sus scrofa, UniProt P24964); assay: Enzyme activity test, Complex III; settings: cytochrome bc1 complex of pig heart; read-out: IC50 (nM) Complex III
T1 construct: The test target is cytochrome bc1 complex of pig heart; from tissue; host or cells: pig heart
Protocol: as §1
^b The test target is cytochrome bc1 complex of pig heart.

[3] = biological target: NADH oxidase (NOX) (Sus scrofa, UniProt P24964); assay: Enzyme activity test, NOX
Protocol: as §1, §2

T1 sequence (P24964 whole entry, one chain of several): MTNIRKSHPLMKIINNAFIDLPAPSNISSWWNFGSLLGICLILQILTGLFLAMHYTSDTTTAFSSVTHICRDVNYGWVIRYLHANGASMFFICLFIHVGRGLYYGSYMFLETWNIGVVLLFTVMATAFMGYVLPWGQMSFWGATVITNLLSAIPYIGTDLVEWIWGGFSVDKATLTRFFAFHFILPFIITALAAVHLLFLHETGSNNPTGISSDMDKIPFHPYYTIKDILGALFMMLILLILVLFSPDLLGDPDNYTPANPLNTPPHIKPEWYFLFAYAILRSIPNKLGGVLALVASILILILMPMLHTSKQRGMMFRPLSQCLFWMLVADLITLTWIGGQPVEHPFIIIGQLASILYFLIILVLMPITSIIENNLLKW
Sequence of NADH oxidase (NOX) (P24964 whole entry): as the sequence (P24964 whole entry, one chain of several) above
Sequence of succinate-cytochrome C oxidase (SCO) (P24964 whole entry): as the sequence (P24964 whole entry, one chain of several) above

Which results are given for CO/C=C(/C(=O)OC)c1ccccc1Oc1cc(Oc2ccccc2C#N)ncn1 [Azoxystrobin, azoxystrobin, reference compound]?
IC50 [1]: 13 nM; IC50 [2]: 200 nM; IC50 [3]: 27 nM

From patent publication US9422254B2, “Methoxyacrylate-based fungicide and methods for preparing and using the same” (priority 2008, dated 2016)
